Data published in patent US11951094B2, “TLR2 modulator compounds, pharmaceutical compositions and uses thereof” (Axial Therapeutics, Inc., priority 2020, dated 2024).
pEC50: −log10 of the molar value. Where a name gives a salt, the structure may show the parent alone.

Molecular target: TLR2 (Homo sapiens, UniProt O60603)
Assay: TLR2 agonist screening assay, HEK-Blue TLR2 reporter cell line (NF-kB-driven SEAP, absorbance at 600 nm)
Assay type: cell-based
Parameters: host or cells: HEK-293 (HEK-Blue TLR2 reporter cell line)
Details: HEK-Blue TLR2 reporter cells, agonist mode
Method in brief: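 HEK-293 cells expressing TLR2 with NF-kB-driven SEAP were plated at 40,000 per well. After 16-24 h, they were treated overnight with diluted agonists in detection medium (1% DMSO final). Absorbance at 600 nm was read, and EC50 values were fitted.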

Chain of TLR2 (O60603 21-784): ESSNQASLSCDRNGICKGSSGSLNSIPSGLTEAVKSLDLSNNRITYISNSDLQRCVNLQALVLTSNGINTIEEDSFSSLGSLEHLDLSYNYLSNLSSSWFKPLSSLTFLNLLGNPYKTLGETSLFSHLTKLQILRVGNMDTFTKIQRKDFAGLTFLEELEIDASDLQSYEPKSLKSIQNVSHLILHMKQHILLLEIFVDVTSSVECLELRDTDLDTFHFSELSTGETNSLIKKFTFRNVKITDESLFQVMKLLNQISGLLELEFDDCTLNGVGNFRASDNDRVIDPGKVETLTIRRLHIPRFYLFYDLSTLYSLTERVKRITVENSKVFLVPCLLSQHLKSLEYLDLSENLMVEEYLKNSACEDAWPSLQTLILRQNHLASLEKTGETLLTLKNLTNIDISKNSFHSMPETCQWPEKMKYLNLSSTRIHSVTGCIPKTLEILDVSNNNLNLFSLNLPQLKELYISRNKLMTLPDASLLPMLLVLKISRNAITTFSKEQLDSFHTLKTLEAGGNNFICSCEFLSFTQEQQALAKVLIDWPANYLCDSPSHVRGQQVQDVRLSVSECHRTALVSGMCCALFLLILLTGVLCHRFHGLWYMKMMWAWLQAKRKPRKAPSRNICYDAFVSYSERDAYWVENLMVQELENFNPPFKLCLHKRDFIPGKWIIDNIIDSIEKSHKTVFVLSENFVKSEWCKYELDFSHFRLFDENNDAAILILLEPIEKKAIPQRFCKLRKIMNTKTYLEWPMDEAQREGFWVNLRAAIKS

SMILES | pEC50 (average of all runs (Table 3)) | pEC50 (average of all runs (Table 4))
CCCCCCNC(=O)[C@@H]1CN(C(=O)c2ccc(C(=O)N3C[C@@H](C(=O)N[C@H]4C[C@@H]4c4ccccc4)[C@H](C(=O)N[C@H]4C[C@@H]4c4ccccc4)C3)cc2)C[C@H]1NC(=O)CCCCCC [Compound 039] | < 6.00 | –
CCCCCCCC(=O)N1CCN(C(=O)c2ccc(C(=O)N3C[C@@H](C(=O)N[C@H]4C[C@@H]4c4ccccc4)[C@H](C(=O)N[C@H]4C[C@@H]4c4ccccc4)C3)cc2)CC1C(=O)N[C@H]1C[C@@H]1c1ccccc1 (stereo partly drawn) [Compound 040] | < 6.00 | –
CCCCCCNC(=O)C1CN(C(=O)c2ccc(C(=O)N3C[C@@H](C(=O)N[C@H]4C[C@@H]4c4ccccc4)[C@H](C(=O)N[C@H]4C[C@@H]4c4ccccc4)C3)cc2)CCN1C(=O)CCc1ccc(F)cc1 (stereo partly drawn) [Compound 041, (3S,4S)-1-(4-(4-(3-(4-fluorophenyl)propanoyl)-3-(hexylcarbamoyl)piperazine-1-carbonyl)benzoyl)-N3,N4-bis((1S,2R)-2-phenylcyclopropyl)pyrrolidine-3,4-dicarboxamide] | 6.00 to 6.45 | –
CCCCCCNC(=O)C1CN(C(=O)c2ccc(C(=O)N3C[C@@H](C(=O)N[C@H]4C[C@@H]4c4ccccc4)[C@H](C(=O)N[C@H]4C[C@@H]4c4ccccc4)C3)cc2)CCN1 (stereo partly drawn) [Compound 042, (3S,4S)-1-(4-(3-(hexylcarbamoyl)piperazine-1-carbonyl)benzoyl)-N3,N4-bis((1S,2R)-2-phenylcyclopropyl)pyrrolidine-3,4-dicarboxamide formate] | 6.00 to 6.45 | –
CCCCCCNC(=O)[C@@H]1C[C@@H](C(=O)NCCCCCC)CN(C(=O)c2ccc(C(=O)N3C[C@@H](C(=O)N[C@H]4C[C@@H]4c4ccccc4)[C@H](C(=O)N[C@H]4C[C@@H]4c4ccccc4)C3)cc2)C1 [Compound 043] | < 6.00 | –
CCCCCCCS(=O)(=O)N1CCN(C(=O)c2ccc(C(=O)N3C[C@@H](C(=O)N[C@H]4C[C@@H]4c4ccccc4)[C@H](C(=O)N[C@H]4C[C@@H]4c4ccccc4)C3)cc2)CC1C(=O)NCCCCCC (stereo partly drawn) [Compound 047] | < 6.00 | –
CCCCCCCC(=O)N1CCN(C(=O)c2ccc(C(=O)N3C[C@@H](C(=O)N[C@H]4C[C@@H]4c4ccccc4)[C@H](C(=O)N[C@H]4C[C@@H]4c4ccccc4)C3)cc2)CC1C(=O)NCC (stereo partly drawn) [Compound 048, (3S,4S)-1-(4-(3-(ethylcarbamoyl)-4-octanoylpiperazine-1-carbonyl)benzoyl)-N3,N4-bis ((1S,2R)-2-phenylcyclopropyl) pyrrolidine-3,4-dicarboxamide] | 6.00 to 6.45 | –
CCCCCCNC(=O)C1CN(C(=O)c2ccc(C(=O)N3C[C@@H](C(=O)N[C@H]4C[C@@H]4c4ccccc4)[C@H](C(=O)N[C@H]4C[C@@H]4c4ccccc4)C3)cc2)CCN1C(=O)NCCCCCC (stereo partly drawn) [Compound 049] | < 6.00 | –
CCCCCCNC(=O)C1CN(C(=O)c2ccc(C(=O)N3C[C@@H](C(=O)N[C@H]4C[C@@H]4c4ccccc4)[C@H](C(=O)N[C@H]4C[C@@H]4c4ccccc4)C3)cc2)CCN1C(=O)CCCCC (stereo partly drawn) [Compound 050, (3S,4S)-1-(4-(4-hexanoyl-3-(hexylcarbamoyl)piperazine-1-carbonyl)benzoyl)-N3,N4-bis((1S,2R)-2-phenylcyclopropyl)pyrrolidine-3,4-dicarboxamide] | 6.46 to 7.29 | –
CCCCCCCCC(=O)N1CCN(C(=O)c2ccc(C(=O)N3C[C@@H](C(=O)N[C@H]4C[C@@H]4c4ccccc4)[C@H](C(=O)N[C@H]4C[C@@H]4c4ccccc4)C3)cc2)CC1C(=O)NCCCCCC (stereo partly drawn) [Compound 051, (3S,4S)-1-(4-(3-(hexylcarbamoyl)-4-nonanoylpiperazine-1-carbonyl)benzoyl)-N3,N4-bis((1S,2R)-2-phenylcyclopropyl)pyrrolidine-3,4-dicarboxamide] | 7.30 to 10.00 | –
CCCCCCCC(=O)N1CCN(C(=O)c2ccc(C(=O)N3C[C@@H](C(=O)N[C@H]4C[C@@H]4c4ccccc4)[C@H](C(=O)N[C@H]4C[C@@H]4c4ccccc4)C3)cc2)CC1C(=O)NCCCCC (stereo partly drawn) [Compound 052, (3S,4S)-1-(4-(4-octanoyl-3-(pentylcarbamoyl)piperazine-1-carbonyl)benzoyl)-N3,N4-bis((1S,2R)-2-phenylcyclopropyl)pyrrolidine-3,4-dicarboxamide] | 7.30 to 10.00 | –
CCCCCCNC(=O)C1CN(C(=O)c2ccc(C(=O)N3C[C@@H](C(=O)N[C@H]4C[C@@H]4c4ccccc4)[C@H](C(=O)N[C@H]4C[C@@H]4c4ccccc4)C3)cc2)CCN1C(=O)CCC (stereo partly drawn) [Compound 055, (3S,4S)-1-(4-(4-butyryl-3-(hexylcarbamoyl)piperazine-1-carbonyl)benzoyl)-N3,N4-bis((1S,2R)-2-phenylcyclopropyl)pyrrolidine-3,4-dicarboxamide] | 6.00 to 6.45 | –
CCCCCCCCCCCC(=O)N1CCN(C(=O)c2ccc(C(=O)N3C[C@@H](C(=O)N[C@H]4C[C@@H]4c4ccccc4)[C@H](C(=O)N[C@H]4C[C@@H]4c4ccccc4)C3)cc2)CC1C(=O)NCCCCCC (stereo partly drawn) [Compound 057, (3S,4S)-1-(4-(4-dodecanoyl-3-(hexylcarbamoyl)piperazine-1-carbonyl)benzoyl)-N3,N4-bis((1S,2R)-2-phenylcyclopropyl)pyrrolidine-3,4-dicarboxamide] | 6.46 to 7.29 | –
CCCCCCCNC(=O)C1CN(C(=O)c2ccc(C(=O)N3C[C@@H](C(=O)N[C@H]4C[C@@H]4c4ccccc4)[C@H](C(=O)N[C@H]4C[C@@H]4c4ccccc4)C3)cc2)CCN1C(=O)CCCCCCC (stereo partly drawn) [Compound 058] | 6.46 to 7.29 | –
CCCCCCCCCC(=O)N1CCN(C(=O)c2ccc(C(=O)N3C[C@@H](C(=O)N[C@H]4C[C@@H]4c4ccccc4)[C@H](C(=O)N[C@H]4C[C@@H]4c4ccccc4)C3)cc2)CC1C(=O)NCCCCCC (stereo partly drawn) [Compound 064, (3S,4S)-1-(4-(4-decanoyl-3-(hexylcarbamoyl)piperazine-1-carbonyl)benzoyl)-N3,N4-bis((1S,2R)-2-phenylcyclopropyl)pyrrolidine-3,4-dicarboxamide] | 7.30 to 10.00 | –
CCCCCCCCNC(=O)C1CN(C(=O)c2ccc(C(=O)N3C[C@@H](C(=O)N[C@H]4C[C@@H]4c4ccccc4)[C@H](C(=O)N[C@H]4C[C@@H]4c4ccccc4)C3)cc2)CCN1C(=O)CCCCCCC (stereo partly drawn) [Compound 065, (3S,4S)-1-(4-(4-octanoyl-3-(octylcarbamoyl)piperazine-1-carbonyl)benzoyl)-N3,N4-bis((1S,2R)-2-phenylcyclopropyl)pyrrolidine-3,4-dicarboxamide] | 6.46 to 7.29 | –
CCCCCCCCCCNC(=O)C1CN(C(=O)c2ccc(C(=O)N3C[C@@H](C(=O)N[C@H]4C[C@@H]4c4ccccc4)[C@H](C(=O)N[C@H]4C[C@@H]4c4ccccc4)C3)cc2)CCN1C(=O)CCCCCCC (stereo partly drawn) [Compound 066, (3S,4S)-1-(4-(3-(decylcarbamoyl)-4-octanoylpiperazine-1-carbonyl)benzoyl)-N3,N4-bis((1S,2R)-2-phenylcyclopropyl)pyrrolidine-3,4-dicarboxamide] | 6.46 to 7.29 | –

Further lines, results first:

pEC50 (average of all runs (Table 3)) | pEC50 (average of all runs (Table 4)) | SMILES
< 6.00 | – | O=C(N[C@H]1C[C@@H]1c1ccccc1)[C@@H]1CN(C(=O)c2cnc(C(=O)N3C[C@@H](C(=O)N[C@H]4C[C@@H]4c4ccccc4)[C@H](C(=O)N[C@H]4C[C@@H]4c4ccccc4)C3)cn2)C[C@H]1C(=O)N[C@H]1C[C@@H]1c1ccccc1 [Compound 067]
< 6.00 | – | O=C(N[C@H]1C[C@@H]1c1ccccc1)[C@@H]1CN(C(=O)C23CC(C(=O)N4C[C@@H](C(=O)N[C@H]5C[C@@H]5c5ccccc5)[C@H](C(=O)N[C@H]5C[C@@H]5c5ccccc5)C4)(C2)C3)C[C@H]1C(=O)N[C@H]1C[C@@H]1c1ccccc1 [Compound 068]
6.00 to 6.45 | – | CCCCCCCCCCCCCCNC(=O)[C@@H]1CN(C(=O)c2ccc(C(=O)N3C[C@@H](C(=O)N[C@H]4C[C@@H]4c4ccccc4)[C@H](C(=O)N[C@H]4C[C@@H]4c4ccccc4)C3)cc2)CCN1C [Compound 069, (3S,4S)-1-(4-((S)-4-methyl-3-(tetradecylcarbamoyl)piperazine-1-carbonyl)benzoyl)-N3,N4-bis ((1S,2R)-2-phenylcyclopropyl) pyrrolidine-3,4-dicarboxamide formate]
< 6.00 | – | CCCCCCNC(=O)[C@@H](CNC(=O)c1ccc(C(=O)N2C[C@@H](C(=O)N[C@H]3C[C@@H]3c3ccccc3)[C@H](C(=O)N[C@H]3C[C@@H]3c3ccccc3)C2)cc1)NC(=O)CCCCCC [Compound 070, (3S,4S)-1-(4-(((R)-2-heptanamido-3-(hexylamino)-3-oxopropyl)carbamoyl)benzoyl)-N3,N4-bis((1S,2R)-2-phenylcyclopropyl)pyrrolidine-3,4-dicarboxamide]
6.46 to 7.29 | – | O=C(N[C@H]1C[C@@H]1c1ccccc1)[C@@H]1CN(C(=O)c2cnc(C(=O)N3C[C@@H](C(=O)N[C@H]4C[C@@H]4c4ccccc4)[C@H](C(=O)N[C@H]4C[C@@H]4c4ccccc4)C3)nc2)C[C@H]1C(=O)N[C@H]1C[C@@H]1c1ccccc1 [Compound 071, (3S,3'S,4S,4'S)-1,1′-(pyrimidine-2,5-dicarbonyl)bis(N3,N4-bis((1S,2R)-2-phenylcyclopropyl)pyrrolidine-3,4-dicarboxamide)]
6.46 to 7.29 | – | CCCCCCCC(=O)N1CC(=O)N(Cc2ccc(C(=O)N3C[C@@H](C(=O)N[C@H]4C[C@@H]4c4ccccc4)[C@H](C(=O)N[C@H]4C[C@@H]4c4ccccc4)C3)cc2)C[C@@H]1C(=O)NCCCCCC [Compound 074, (3S,4S)-1-(4-(((R)-5-(hexylcarbamoyl)-4-octanoyl-2-oxopiperazin-1-yl)methyl)benzoyl)-N3,N4-bis((1S,2R)-2-phenylcyclopropyl)pyrrolidine-3,4-dicarboxamide]
– | 6.46 to 7.29 | CCCCCCCCCCCCCCC(=O)N[C@H]1CN(C(=O)c2ccc(C(=O)N3C[C@@H](C(=O)N[C@H]4C[C@@H]4c4ccccc4)[C@H](C(=O)N[C@H]4C[C@@H]4c4ccccc4)C3)cc2)C[C@@H]1O [Compound 078, (3S,4S)-1-(4-((3S,4S)-3-hydroxy-4-pentadecanamidopyrrolidine-1-carbonyl)benzoyl)-N3,N4-bis((1S,2R)-2-phenylcyclopropyl)pyrrolidine-3,4-dicarboxamide]
